# Measured values as given in patent publication US20070197389A1 (priority 2004, published 2007).
# Tests used:
# Pyricularia oryzae = format: cell-based; conditions: 125 ppm active compound, microtiter plate, absorption at 405 nm on day 7 after inoculation, relative to active compound-free control
# Phytophthora infestans = format: in vivo; conditions: 250 ppm active compound, potted tomato plants, sprayed 1 day before infection, assessed after 6 days; untreated plants 70% infected
Structure (SMILES),relative growth (Pyricularia oryzae),infection (Phytophthora infestans)
"CC(=O)Nc1c(-c2c(F)cc(F)cc2F)c(Cl)nc2ncnn12 [Example 4, N-[5-Chloro-6-(2,4,6-trifluorophenyl)(1,2,4-triazolo[1,5-a]pyrimidin-7-yl)]acetamide]",less than or equal to 1%,
"CCC(=O)Nc1c(-c2c(F)cc(F)cc2F)c(Cl)nc2ncnn12 [Example 5, N-[5-chloro-6-(2,4,6-trifluorophenyl)(1,2,4-triazolo-[1,5-a]pyrimidin-7-yl)]propionamide]",,less than or equal to 15%
